# Patent US20070021509A1, “Phosphate transport inhibitors” (priority 2001, published 2007)
# Test system: phosphate uptake by rabbit intestinal Brush Border Membrane Vesicles (BBMV)
# Assay: 33PO4 uptake in rabbit intestinal BBMV (HTS), phosphate transporter inhibition in vitro
# Type: biochemical
# Settings: Table 2, phosphate uptake, read-out: IC50
# Method: The following example outlines the procedures required for in vitro measurement of the inhibition of phosphate uptake by rabbit intestinal Brush Border Membrane Vesicles (BBMV).
# Rabbit Intestinal Brush Border Membrane Vesicles (BBMV) were isolated from mucosal scrapings of the upper small intestine (duodenum) of male New Zealand White rabbits. The scrapings were divided into 2 g aliquots in cryopreservation vials, frozen in liquid nitrogen, and stored at −80° C.
# The following procedure was performed for each 2 g sample of BBMV mucosal scraping. Buffer volumes and container sizes were adjusted appropriately for the number of 2 g samples used. The entire preparation was performed on ice, unless otherwise stated.
# Mucosal scrapings (2 g per tube) were thawed in a 37° C. water bath for 3 minutes and then placed on ice. The scrapings were suspended with a total of 7.5 ml of 300 MET, and transferred to a 250 mL Corning tube on ice. To the suspension was added 30 mL cold (4° C.) deionized water (dH20). The suspension was homogenized with a tissue homogenizer (Polytron) on high speed for 2 minutes. A stir bar and MgCl2 (81.3 mg) was added. The suspension was mixed well by inverting the closed tube. The suspension was stirred on ice, ensuring that a good vortex is achieved with the stir bar, for 40 minutes. The suspension was transferred to a chilled centrifuge tube and spun at 4000×g for 15 minutes. The supernatant was transferred to a new chilled centrifuge tube and spun at 32000×g for 30 minutes. The supernatant was discarded and the pellet was re-suspended with 34 mL cold 60 MET. The suspension was homogenized with a Dounce homogenizer with 8 strokes. The suspension was transferred to a fresh 250 mL Corning tube. A stir bar and 69.1 mg MgCl2 were added. The suspension was stirred well on ice for 10 minutes. The suspension was transferred to a chilled centrifuge tube and spun at 4000×g for 15 minutes. The supernatant was transferred to a new chilled centrifuge tube and spun at 32000×g for 30 minutes. The supernatant was discarded. At this stage, the preparation could be continued or this pellet (P4) could be frozen in liquid nitrogen and stored at −80° C. When needed, this pellet could be allowed to thaw at room temperature for 5 minutes. Continuing the preparation, the pellet was re-suspended with 34 mL cold 280 MH. The suspension was homogenized in a Dounce homogenize with 8 strokes. The suspension was transferred to a new chilled centrifuge tube and spun at 32000×g for 30 minutes. The supernatant was discarded. To the pellet was added 500 μL 280 MH and the pellet was re-suspended very carefully with a 1 mL tuberculin syringe with a 25-gauge needle with care not to create bubbles. Once the entire pellet was suspended, the suspension was transferred to a chilled 1.5 mL microfuge tube. The suspension was evenly dispersed by bringing the suspension up into the syringe through the 25-gauge needle, and back out again 8 times with care not to create bubbles. The total protein concentration was determined by performing a Bradford Protein Assay. Using that value, the BBMV were diluted with 280 MH to reach approximately 0.5-2.0 mg/mL. The solution was used as soon as possible for uptake studies.
# The following experiment was performed using a Beckman Multimek 96-tip robotic pipettor. The following outlines the preparation required to screen one 96-well plate of compounds. However, multiple plates could be screened in one experiment.
# To the “Uptake Buffers” was added ^33PO4 to reach 200,000 CPM/19 μL. The buffer solutions were stored at room temperature. The following control solutions were prepared and placed into appropriate wells of a polypropylene, 96-well V-bottom plate (“Hot Stock Plate”):
# a. Maximum activity (MAX)−Na Uptake buffer+^33PO4 at 200,000 CPM/19 μL
# b. Midline activity (MID)−MAX+100 μM KH2PO4, pH 7.4
# c. Minimum activity (MIN)− K Uptake buffer+^33PO4 at 200,000 CPM/19 μL
row,IC50 [µM],SMILES
1,101 to 500,O=C(NCc1ccccc1F)c1cc(Br)ccc1NS(=O)(=O)c1ccc(OC(F)(F)F)cc1 [Compound 70]
2,101 to 500,CC(C)(C)c1ccc(NC(=O)c2cc(Br)ccc2NS(=O)(=O)c2ccc(OC(F)(F)F)cc2)cc1 [Compound 71]
3,101 to 500,O=C(Nc1cccc(Br)c1)c1cc(Br)ccc1NS(=O)(=O)c1ccc(OC(F)(F)F)cc1 [Compound 72]
4,101 to 500,O=C(Nc1ccc(-c2ccccc2)cc1)c1cc(Br)ccc1NS(=O)(=O)c1ccc(OC(F)(F)F)cc1 [Compound 73]
5,101 to 500,O=C(Nc1ccc(Oc2ccccc2)cc1)c1cc(Br)ccc1NS(=O)(=O)c1ccc(OC(F)(F)F)cc1 [Compound 74]
6,101 to 500,O=C(NC1CCCCC1)c1cc(Br)ccc1NS(=O)(=O)c1ccc(OC(F)(F)F)cc1 [Compound 75]
7,101 to 500,O=C(NC1CCCc2ccccc21)c1cc(Br)ccc1NS(=O)(=O)c1ccc(OC(F)(F)F)cc1 (centres unmarked) [Compound 76]
8,101 to 500,COc1ccc(CNC(=O)c2cc(Br)ccc2NS(=O)(=O)c2ccc(OC(F)(F)F)cc2)cc1 [Compound 77]
9,101 to 500,O=C(Nc1cccc(Cl)c1)c1cc(Br)ccc1NS(=O)(=O)c1ccc(OC(F)(F)F)cc1 [Compound 78]
10,101 to 500,O=C(Nc1ccc(Cl)cc1Cl)c1cc(Br)ccc1NS(=O)(=O)c1ccc(OC(F)(F)F)cc1 [Compound 79]
11,501 to 1000,O=C(Nc1cc(Cl)ccc1Cl)c1cc(Br)ccc1NS(=O)(=O)c1ccc(OC(F)(F)F)cc1 [Compound 80]
12,501 to 1000,CCCCCCCCCCc1ccc(NC(=O)c2cc(Br)ccc2NS(=O)(=O)c2ccc(OC(F)(F)F)cc2)cc1 [Compound 81]
13,501 to 1000,Cc1ccc(CNC(=O)c2cc(Br)ccc2NS(=O)(=O)c2ccc(OC(F)(F)F)cc2)cc1 [Compound 82]
14,501 to 1000,Cc1c(Cl)cccc1NC(=O)c1cc(Br)ccc1NS(=O)(=O)c1ccc(OC(F)(F)F)cc1 [Compound 83]
15,1000 to 1500,Cc1cc(Br)ccc1NC(=O)c1cc(Br)ccc1NS(=O)(=O)c1ccc(OC(F)(F)F)cc1 [Compound 84]
16,51 to 100,O=C(Nc1ccc(Cl)cc1Cl)c1cc(Br)ccc1NS(=O)(=O)c1ccc(Cl)cc1 [Compound 85]
17,51 to 100,O=C(Nc1ccccc1Cl)c1cc(Br)ccc1NS(=O)(=O)c1ccc(Cl)cc1 [Compound 86]
18,51 to 100,O=C(Nc1cc(Cl)ccc1Cl)c1cc(Br)ccc1NS(=O)(=O)c1ccc(Cl)cc1 [Compound 87]
19,101 to 500,O=C(Nc1ccccc1F)c1cc(Br)ccc1NS(=O)(=O)c1ccc(Cl)cc1 [Compound 88]
20,101 to 500,COc1ccccc1NC(=O)c1cc(Br)ccc1NS(=O)(=O)c1ccc(Cl)cc1 [Compound 89]
21,101 to 500,O=C(Nc1ccccc1Br)c1cc(Br)ccc1NS(=O)(=O)c1ccc(Cl)cc1 [Compound 90]
22,> 1500,O=C(Nc1cccc(Br)c1)c1cc(Br)ccc1NS(=O)(=O)c1ccc(Cl)cc1 [Compound 91]
23,> 1500,Cc1c(Cl)cccc1NC(=O)c1cc(Br)ccc1NS(=O)(=O)c1ccc(Cl)cc1 [Compound 93]
24,> 1500,Cc1ccccc1NC(=O)c1cc(Br)ccc1NS(=O)(=O)c1ccc(Cl)cc1 [Compound 94]
25,> 1500,O=C(Nc1cccc(Cl)c1)c1cc(Br)ccc1NS(=O)(=O)c1ccc(Cl)cc1 [Compound 95]
26,> 1500,O=C(c1ccc(Cl)cc1)c1cc(NC(=O)c2cc(Br)ccc2NS(=O)(=O)c2ccc(Cl)cc2)ccc1Cl [Compound 96]
27,> 1500,O=C(Nc1ccc(Cl)cc1)c1cc(Br)ccc1NS(=O)(=O)c1ccc(Cl)cc1 [Compound 97]

row,IC50 [µM],SMILES
1,51 to 100,COc1ccc(S(=O)(=O)Nc2ccc(Br)cc2C(=O)Nc2cc(Cl)ccc2Cl)cc1[N+](=O)[O-] [Compound 98]
2,51 to 100,COc1ccc(S(=O)(=O)Nc2ccc(Br)cc2C(=O)Nc2ccccc2Cl)cc1[N+](=O)[O-] [Compound 99]
3,51 to 100,COc1ccc(S(=O)(=O)Nc2ccc(Br)cc2C(=O)Nc2cccc(Cl)c2C)cc1[N+](=O)[O-] [Compound 100]
4,51 to 100,COc1ccc(S(=O)(=O)Nc2ccc(Br)cc2C(=O)Nc2cccc(Cl)c2)cc1[N+](=O)[O-] [Compound 101]
5,51 to 100,COc1ccc(S(=O)(=O)Nc2ccc(Br)cc2C(=O)Nc2ccccc2F)cc1[N+](=O)[O-] [Compound 102]
6,51 to 100,COc1ccc(S(=O)(=O)Nc2ccc(Br)cc2C(=O)Nc2cccc(Br)c2)cc1[N+](=O)[O-] [Compound 103]
7,51 to 100,COc1ccc(S(=O)(=O)Nc2ccc(Br)cc2C(=O)Nc2ccc(Cl)cc2Cl)cc1[N+](=O)[O-] [Compound 104]
8,51 to 100,COc1ccc(S(=O)(=O)Nc2ccc(Br)cc2C(=O)Nc2ccccc2Br)cc1[N+](=O)[O-] [Compound 105]
9,101 to 500,COc1ccccc1NC(=O)c1cc(Br)ccc1NS(=O)(=O)c1ccc(OC)c([N+](=O)[O-])c1 [Compound 106]
10,101 to 500,COc1ccc(S(=O)(=O)Nc2ccc(Br)cc2C(=O)Nc2ccccc2C(=O)O)cc1[N+](=O)[O-] [Compound 107]
11,101 to 500,COc1ccc(S(=O)(=O)Nc2ccc(Br)cc2C(=O)Nc2ccccc2C)cc1[N+](=O)[O-] [Compound 108]
12,< 50,O=C(Nc1ccc(Cl)c(Cl)c1)c1cc(Br)ccc1NS(=O)(=O)c1ccc(Cl)c([N+](=O)[O-])c1 [Compound 110]
13,< 50,O=C(Nc1cc(Cl)ccc1Cl)c1cc(Br)ccc1NS(=O)(=O)c1ccc(Cl)c([N+](=O)[O-])c1 [Compound 111]
14,< 50,O=C(Nc1cc(Cl)ccc1Cl)c1cc(Br)ccc1NS(=O)(=O)c1ccc(Cl)c([N+](=O)[O-])c1 [Compound 112]
15,51 to 100,O=C(Nc1ccc(Cl)c(Cl)c1)c1cc(Br)ccc1NS(=O)(=O)c1ccc(Cl)c([N+](=O)[O-])c1 [Compound 113]
16,51 to 100,O=C(Nc1ccccc1Br)c1cc(Br)ccc1NS(=O)(=O)c1ccc(Cl)c([N+](=O)[O-])c1 [Compound 114]
17,51 to 100,O=C(Nc1cc(Cl)ccc1Cl)c1cc(Br)ccc1NS(=O)(=O)c1ccc(Cl)c([N+](=O)[O-])c1 [Compound 115]
18,101 to 500,O=C(Nc1cccc(Br)c1)c1cc(Br)ccc1NS(=O)(=O)c1ccc(Cl)c([N+](=O)[O-])c1 [Compound 116]
19,101 to 500,COc1ccccc1NC(=O)c1cc(Br)ccc1NS(=O)(=O)c1ccc(Cl)c([N+](=O)[O-])c1 [Compound 117]
20,101 to 500,O=C(Nc1ccccc1Cl)c1cc(Br)ccc1NS(=O)(=O)c1ccc(Cl)c([N+](=O)[O-])c1 [Compound 118]
21,1000 to 1500,NCCCCCCNC(=O)c1cc(Br)ccc1NS(=O)(=O)c1ccc(Cl)c([N+](=O)[O-])c1 [Compound 119]
22,> 1500,O=C(Nc1ccc(Cl)cc1Cl)c1cc(Br)ccc1NS(=O)(=O)c1ccc(Cl)c([N+](=O)[O-])c1 [Compound 120]
23,> 1500,Cc1ccccc1NC(=O)c1cc(Br)ccc1NS(=O)(=O)c1ccc(Cl)c([N+](=O)[O-])c1 [Compound 121]
24,> 1500,Cc1c(Cl)cccc1NC(=O)c1cc(Br)ccc1NS(=O)(=O)c1ccc(Cl)c([N+](=O)[O-])c1 [Compound 122]
25,> 1500,O=C(Nc1cccc(Cl)c1)c1cc(Br)ccc1NS(=O)(=O)c1ccc(Cl)c([N+](=O)[O-])c1 [Compound 123]
26,> 1500,O=C(Nc1ccccc1F)c1cc(Br)ccc1NS(=O)(=O)c1ccc(Cl)c([N+](=O)[O-])c1 [Compound 124]
27,101 to 500,O=C(Nc1ccc(Cl)c(Cl)c1)c1cc(Br)ccc1NS(=O)(=O)c1cccc([N+](=O)[O-])c1 [Compound 125]

# Same assay, conditions: Table 3, 100 μM compound
row,SMILES,% Inhib. At 100 μM [%]
1,O=S(=O)(Nc1ccc(I)cc1F)c1ccc(OC(F)(F)F)cc1 [Compound 126],103
2,O=S(=O)(Nc1cc(Cl)c(Cl)cc1Cl)c1cc(C(F)(F)F)cc(C(F)(F)F)c1 [Compound 127],101
